The values that follow come from patent US20250312499A1, “KISSPEPTIN RECEPTOR (KISS1R) TARGETED THERAPEUTICS AND USES THEREOF” (priority 2024, published 2025).

Structures are written as SMILES. Numbered stars: 1 amine (or outer) side, 2 acyl side, 3 side chain; on linkers, the order of the positions; unused ones are H or OH. Square brackets hold non-standard residues; d marks the D form. Peptide text beside a SMILES is read from it. * marks the point of attachment. DOTA = O=C(O)CN1CCN(CC(=O)O)CCN(CC(=O)*)CCN(CC(=O)O)CC1; Ala(9-anthryl) = N[C@@H](Cc1c2ccccc2cc2ccccc12)C(=O)O; Gly(N-(3-F-4-Me-benzyl)) = Cc1ccc(CNCC(=O)*)cc1F; Gly(N-3-F-4-Me-benzyl) = Cc1ccc(CNCC(=O)O)cc1F; Gly(Nα-4-MeO-benzyl) = COc1ccc(CNCC(=O)*)cc1; X4 = O=C(c1ccc(-c2ccccc2OCCCN[*:1])cc1)[*:2]; Butanoyl(4-(4-MePh)) = Cc1ccc(CCCC(=O)*)cc1; Api(1-amidino) = N=C(N)N1CCC(N)(C(=O)O)CC1; Hydrocinnamoyl(4-Me) = Cc1ccc(CCC(=O)*)cc1; Bip = N[C@@H](Cc1ccc(-c2ccccc2)cc1)C(=O)O; Phe(4-I) = N[C@@H](Cc1ccc(I)cc1)C(=O)O; 2Nal = N[C@@H](Cc1ccc2ccccc2c1)C(=O)O; d2Nal = N[C@H](Cc1ccc2ccccc2c1)C(=O)O; Trx = NC[C@H]1CC[C@H](C(=O)O)CC1; X1 = O=C(CN1CCC(N[*:1])CC1)[*:2]; 4Pal = N[C@@H](Cc1ccncc1)C(=O)O; d4Pal = N[C@H](Cc1ccncc1)C(=O)O; Cha = N[C@@H](CC1CCCCC1)C(=O)O; Lauroyl = CCCCCCCCCCCC(=O)*; 4Amb = NCc1ccc(C(=O)O)cc1; Api = NC1(C(=O)O)CCNCC1; PEG2 = NCCOCCOCCC(=O)O; AEEA = NCCOCCOCC(=O)O; Ahx = NCCCCCC(=O)O; azaGly = NNC(=O)O; Sar = CNCC(=O)O

The target in this assay is human kisspeptin receptor (Homo sapiens (Human), UniProt Q969F8). Put plainly: Human KISS1R binding assay (membrane competition binding). To be noted: 90 min at room temperature; competition with 0.2 nM [125I]-metastin (45-54); Flp-In T-Rex 293 kisspeptin membranes; metal complexes nonradioactive Ga, In, Lu; read-out: hKiSSR Binding Ki (90 min). Put shortly:
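Membranes from tetracycline-induced (48 h) Flp-In T-Rex 293 cells expressing receptor, 5–10 μg, incubated 90 min at room temperature with 0.2 nM [125I]-metastin (45-54) and competitor (typically 0–10,000 nM) in Tris/Mg/Ca/EGTA/0.1% BSA, pH 7.4. Filtration, washing, counting; Ki by non-linear regression.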

Chain of human kisspeptin receptor (Q969F8 whole entry): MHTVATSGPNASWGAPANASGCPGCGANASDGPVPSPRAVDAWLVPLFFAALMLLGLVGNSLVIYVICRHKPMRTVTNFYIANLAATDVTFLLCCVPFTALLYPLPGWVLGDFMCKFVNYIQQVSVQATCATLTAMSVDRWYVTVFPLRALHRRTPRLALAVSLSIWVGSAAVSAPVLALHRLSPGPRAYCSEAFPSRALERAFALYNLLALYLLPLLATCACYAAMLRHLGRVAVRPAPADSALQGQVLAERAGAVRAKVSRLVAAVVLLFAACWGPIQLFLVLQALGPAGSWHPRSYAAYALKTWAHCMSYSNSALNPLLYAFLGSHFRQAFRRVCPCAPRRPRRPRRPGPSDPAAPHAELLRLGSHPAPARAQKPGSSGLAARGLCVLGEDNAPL

On to `CC(C)C[C@H](NC(=O)NNC(=O)[C@H](Cc1ccc(I)cc1)NC(=O)[C@@H](NC(=O)[C@H](CC(N)=O)NC(=O)[C@H](Cc1c2ccccc2cc2ccccc12)NC(=O)[C@@H](Cc1ccc(O)cc1)NC(=O)CN1CCN(CC(=O)O)CCN(CC(=O)O)CCN(CC(=O)O)CC1)[C@@H](C)O)C(=O)NC1(C(=O)N[C@@H](Cc2ccncc2)C(N)=O)CCN(C(=N)N)CC1` [Compound 188] ({DOTA}-[dY][Ala(9-anthryl)]NT[Phe(4-I)][azaGly]L[Api(1-amidino)][4Pal]-NH2), for which the Ki – broadly, the equilibrium dissociation constant of an inhibitor or competing ligand from its target – was 10 to 100 nM.

As for `Cc1ccc(CNCC(=O)N2CCC(NC(=O)[C@H](CC(C)C)NC(=O)NNC(=O)[C@H](Cc3ccccc3)NC(=O)c3ccc(CNC(=O)CN4CCN(CC(=O)O)CCN(CC(=O)O)CCN(CC(=O)O)CC4)cc3)(C(=O)N[C@@H](Cc3c[nH]c4ccccc34)C(N)=O)CC2)cc1F` [Compound 109] ({DOTA-4Amb}-F[azaGly]L[Api](Gly(N-(3-F-4-Me-benzyl)))W-NH2), the inhibition constant (Ki) is less than 10 nM. For `Cc1ccc(CNCC(=O)N2CCC(NC(=O)[C@H](CC(C)C)NC(=O)NNC(=O)[C@H](Cc3ccccc3)NC(=O)[C@H]3CC[C@H](CNC(=O)CN4CCN(CC(=O)O)CCN(CC(=O)O)CCN(CC(=O)O)CC4)CC3)(C(=O)N[C@@H](Cc3c[nH]c4ccccc34)C(N)=O)CC2)cc1F` [Compound 192] ({DOTA-Trx}-F[azaGly]L[Api](Gly(N-(3-F-4-Me-benzyl)))W-NH2), the Ki is less than 10 nM. For the compound `Cc1ccc(CNCC(=O)N2CCC(NC(=O)[C@H](CC(C)C)NC(=O)NNC(=O)[C@H](Cc3ccccc3)NC(=O)[C@@H](NC(=O)CN3CCC(NC(=O)CN4CCN(CC(=O)O)CCN(CC(=O)O)CCN(CC(=O)O)CC4)CC3)[C@@H](C)O)(C(=O)N[C@@H](Cc3ccc(O)cc3)C(N)=O)CC2)cc1F` [Compound 250] ({DOTA}-[X1]TF[azaGly]L[Api](Gly(N-(3-F-4-Me-benzyl)))Y-NH2), the inhibition constant (Ki) is less than 10 nM. Turning to `Cc1ccc(CNCC(=O)N2CCC(NC(=O)[C@H](CC(C)C)NC(=O)NNC(=O)[C@H](Cc3ccccc3)NC(=O)[C@@H](NC(=O)[C@H](CC(N)=O)NC(=O)[C@@H](Cc3ccc4ccccc4c3)NC(=O)CCCCCNC(=O)CN3CCN(CC(=O)O)CCN(CC(=O)O)CCN(CC(=O)O)CC3)[C@@H](C)O)(C(=O)N[C@@H](Cc3ccncc3)C(N)=O)CC2)cc1F` [Compound 292] ({DOTA-Ahx}-[d2Nal]NTF[azaGly]L[Api](Gly(N-(3-F-4-Me-benzyl)))[4Pal]-NH2), the Ki is less than 10 nM.

As for `Cc1ccc(CNCC(=O)N2CCC(NC(=O)[C@H](CC(C)C)NC(=O)NNC(=O)[C@H](Cc3ccccc3)NC(=O)[C@H]3CC[C@H](CNC(=O)CCCCCNC(=O)CN4CCN(CC(=O)O)CCN(CC(=O)O)CCN(CC(=O)O)CC4)CC3)(C(=O)N[C@@H](Cc3c[nH]c4ccccc34)C(N)=O)CC2)cc1F` [Compound 38] ({DOTA-Ahx-Trx}-F[azaGly]L[Api](Gly(N-(3-F-4-Me-benzyl)))W-NH2), the inhibition constant (Ki) is more than 100 nM.

As for `Cc1ccc(CNCC(=O)N2CCC(NC(=O)[C@H](CC(C)C)NC(=O)NNC(=O)c3ccc(-c4ccccc4OCCCNC(=O)CN4CCC(NC(=O)CN5CCN(CC(=O)O)CCN(CC(=O)O)CCN(CC(=O)O)CC5)CC4)cc3)(C(=O)N[C@@H](Cc3c[nH]c4ccccc34)C(N)=O)CC2)cc1F` [Compound 217] ({DOTA}-[X1][X4][azaGly]L[Api](Gly(N-(3-F-4-Me-benzyl)))W-NH2), the Ki was less than 10 nM. Regarding `Cc1ccc(CCCC(=O)N[C@H](Cc2ccc(O)cc2)C(=O)N[C@H](Cc2c[nH]c3ccccc23)C(=O)N[C@@H](CC(N)=O)C(=O)N[C@H](C(=O)N[C@@H](Cc2ccccc2)C(=O)NNC(=O)N[C@@H](CC(C)C)C(=O)NC2(C(=O)N[C@@H](Cc3c[nH]c4ccccc34)C(N)=O)CCN(C(=O)CNCc3ccc(C)c(F)c3)CC2)[C@@H](C)O)cc1` [Compound 403] ({Butanoyl(4-(4-MePh))}-[dY][dW]NTF[azaGly]L[Api](Gly(N-(3-F-4-Me-benzyl)))W-NH2), the inhibition constant (Ki) was less than 10 nM.

With `Cc1ccc(CNCC(=O)N2CCC(NC(=O)c3ccc(-c4ccccc4)c(OCCNC(=O)[C@H](Cc4ccccc4)NC(=O)CN4CCC(NC(=O)CN5CCN(CC(=O)O)CCN(CC(=O)O)CCN(CC(=O)O)CC5)CC4)c3)(C(=O)N[C@@H](Cc3c[nH]c4ccccc34)C(N)=O)CC2)cc1F` [Compound 214], the inhibition constant (Ki) was less than 10 nM.

Take `CNCC(=O)N1CCC(NC(=O)[C@H](CC(C)C)NC(=O)NNC(=O)[C@H](Cc2ccccc2)NC(=O)[C@@H](NC(=O)[C@H](CC(N)=O)NC(=O)[C@H](CCCCNC(=O)CN2CCN(CC(=O)O)CCN(CC(=O)O)CCN(CC(=O)O)CC2)NC(=O)[C@@H](Cc2ccc(O)cc2)NC(=O)CNCc2ccc(C)c(F)c2)[C@@H](C)O)(C(=O)N[C@H](Cc2c[nH]c3ccccc23)C(N)=O)CC1` [Compound 360] (H-[Gly(N-3-F-4-Me-benzyl)][dY]K(DOTA)NTF[azaGly]L[Api](Sar)[dW]-NH2): the Ki is less than 10 nM. With `Cc1ccc(CNCC(=O)N2CCC(NC(=O)[C@H](CC(C)C)n3cc([C@H](Cc4ccccc4)NC(=O)[C@@H](N)CCCCNC(=O)CN4CCN(CC(=O)O)CCN(CC(=O)O)CCN(CC(=O)O)CC4)nn3)(C(=O)N[C@@H](Cc3c[nH]c4ccccc34)C(N)=O)CC2)cc1F` [Compound 204] the figure was more than 100 nM; with `CC(C)C[C@H](NC(=O)[C@H](Cc1ccccc1)NC(=O)[C@H](CC(N)=O)NC(=O)[C@H](CCCNC(=N)N)NC(=O)[C@H](CC(N)=O)NC(=O)[C@@H](NC(=O)CCCCCNC(=O)CN1CCN(CC(=O)O)CCN(CC(=O)O)CCN(CC(=O)O)CC1)[C@@H](C)O)C(=O)NC1(C(=O)N[C@@H](Cc2ccccc2)C(N)=O)CCN(C(=N)N)CC1` [Compound 199] ({DOTA-Ahx}-TNRNFL[Api(1-amidino)]F-NH2), more than 100 nM. Take `Cc1ccc(CCC(=O)NCCOCCOCCC(=O)N[C@H](Cc2ccc(O)cc2)C(=O)N[C@H](CCCCNC(=O)CN2CCN(CC(=O)O)CCN(CC(=O)O)CCN(CC(=O)O)CC2)C(=O)N[C@@H](CC(N)=O)C(=O)N[C@H](C(=O)N[C@@H](Cc2ccccc2)C(=O)NNC(=O)N[C@@H](CC(C)C)C(=O)NC2(C(=O)N[C@@H](Cc3c[nH]c4ccccc34)C(N)=O)CCN(C(=N)N)CC2)[C@@H](C)O)cc1` [Compound 338] ({Hydrocinnamoyl(4-Me)-PEG2}-[dY][dK](DOTA)NTF[azaGly]L[Api(1-amidino)]W-NH2): the Ki is less than 10 nM. As for `COc1ccc(CNCC(=O)N2CCC(NC(=O)[C@H](CC(C)C)NC(=O)NNC(=O)[C@H](Cc3ccccc3)NC(=O)[C@@H](NC(=O)[C@H](CC(N)=O)NC(=O)[C@@H](Cc3ccncc3)NC(=O)[C@@H](Cc3ccc(O)cc3)NC(=O)CCCCCNC(=O)CN3CCN(CC(=O)O)CCN(CC(=O)O)CCN(CC(=O)O)CC3)[C@@H](C)O)(C(=O)N[C@@H](Cc3ccncc3)C(N)=O)CC2)cc1` [Compound 299] ({DOTA-Ahx}-[dY][d4Pal]NTF[azaGly]L[Api](Gly(Nα-4-MeO-benzyl))[4Pal]-NH2), the Ki is less than 10 nM. Take `CNCC(=O)N1CCC(NC(=O)[C@H](CC(C)C)NC(=O)NNC(=O)[C@H](Cc2ccccc2)NC(=O)[C@@H](NC(=O)[C@H](CC(N)=O)NC(=O)[C@H](Cc2ccc(-c3ccccc3)cc2)NC(=O)[C@@H](Cc2ccc(O)cc2)NC(=O)CCCCCNC(=O)CN2CCN(CC(=O)O)CCN(CC(=O)O)CCN(CC(=O)O)CC2)[C@@H](C)O)(C(=O)N[C@H](Cc2c[nH]c3ccccc23)C(N)=O)CC1` [Compound 389] ({DOTA-Ahx}-[dY][Bip]NTF[azaGly]L[Api](Sar)[dW]-NH2): the Ki was less than 10 nM. In the case of `CC(=O)N[C@H](Cc1ccc(O)cc1)C(=O)N[C@H](Cc1c[nH]c2ccccc12)C(=O)N[C@@H](CC(N)=O)C(=O)N[C@H](C(=O)N[C@@H](CC1CCCCC1)C(=O)NNC(=O)N[C@@H](CC(C)C)C(=O)NC1(C(=O)N[C@@H](Cc2c[nH]c3ccccc23)C(N)=O)CCN(C(=O)CNCc2ccc(C)c(F)c2)CC1)[C@@H](C)O` [Compound 391] (Ac-[dY][dW]NT[Cha][azaGly]L[Api](Gly(N-(3-F-4-Me-benzyl)))W-NH2), the Ki was less than 10 nM. With `CNCC(=O)N1CCC(NC(=O)[C@H](CC(C)C)NC(=O)NNC(=O)[C@H](Cc2ccccc2)NC(=O)[C@@H](NC(=O)[C@H](CC(N)=O)NC(=O)[C@@H](Cc2ccc3ccccc3c2)NC(=O)[C@H](N)Cc2ccc(O)cc2)[C@@H](C)O)(C(=O)N[C@@H](Cc2c[nH]c3ccccc23)C(N)=O)CC1` [Compound 408] (H-[dY][d2Nal]NTF[azaGly]L[Api](Sar)W-NH2) the figure was less than 10 nM; with `Cc1ccc(CNCC(=O)N2CCC(NC(=O)[C@H](CC(C)C)NC(=O)NNC(=O)[C@H](Cc3ccccc3)NC(=O)[C@@H](NC(=O)[C@H](CC(N)=O)NC(=O)[C@H](Cc3ccc4ccccc4c3)NC(=O)[C@@H](Cc3ccc(O)cc3)NC(=O)COCCOCCNC(=O)CN3CCN(CC(=O)O)CCN(CC(=O)O)CCN(CC(=O)O)CC3)[C@@H](C)O)(C(=O)N[C@@H](Cc3c[nH]c4ccccc34)C(N)=O)CC2)cc1F` [Compound 58] ({DOTA-AEEA}-[dY][2Nal]NTF[azaGly]L[Api](Gly(N-(3-F-4-Me-benzyl)))W-NH2), less than 10 nM; with `CCCCCCCCCCCC(=O)N[C@H](Cc1ccc(O)cc1)C(=O)N[C@H](Cc1ccc2ccccc2c1)C(=O)N[C@@H](CC(N)=O)C(=O)N[C@H](C(=O)N[C@@H](Cc1ccccc1)C(=O)NNC(=O)N[C@@H](CC(C)C)C(=O)NC1(C(=O)N[C@@H](Cc2c[nH]c3ccccc23)C(N)=O)CCN(C(=O)CNC)CC1)[C@@H](C)O` [Compound 400] (Lauroyl-[dY][d2Nal]NTF[azaGly]L[Api](Sar)W-NH2), less than 10 nM. For the compound `Cc1ccc(CNCC(=O)N2CCC(NC(=O)[C@H](CC(C)C)n3cc([C@H](Cc4ccccc4)NC(=O)CCCCCNC(=O)CN4CCN(CC(=O)O)CCN(CC(=O)O)CCN(CC(=O)O)CC4)nn3)(C(=O)N[C@@H](Cc3c[nH]c4ccccc34)C(N)=O)CC2)cc1F` [Compound 9], the Ki was less than 10 nM.
